Here are results for 41 compounds from publication PMC11249646, “Small-Molecule Disruptors of the Interaction between Calcium- and Integrin-Binding Protein 1 and Integrin αIIbβ3 as Novel Antiplatelet Agents” (ACS Pharmacology & Translational Science, 2024).

The target in the experiment is T1, CIB1 and αIIb interaction (CIB1-GST : F-αIIb peptide) (Homo sapiens, UniProt Q99828).
T1 construct: made in house; host or cells: BL-21 plus RIL cells (E. coli)
T1 sequence (Q99828 1-191): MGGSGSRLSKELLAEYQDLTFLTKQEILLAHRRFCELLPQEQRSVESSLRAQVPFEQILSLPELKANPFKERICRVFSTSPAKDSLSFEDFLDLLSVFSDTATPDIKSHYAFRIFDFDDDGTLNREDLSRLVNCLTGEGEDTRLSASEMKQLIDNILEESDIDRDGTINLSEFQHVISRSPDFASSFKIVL
The experiment in a line: FP assay, 1536-well qHTS format (primary and confirmatory screen). To be noted: for Efficacy (%): negative = inhibition; for Curve Class: negative sign = inhibitory curve; for IC50: read-out: IC50. Format: binding. In general terms: In qHTS, concentration-response curves come from the screen itself.

Setting [1] is: qHTS primary screen hits, Table S2.
[2] abbreviates: qHTS primary screen hits, Table S2, several classes where COUNT > 1.
[3] abbreviates: qHTS primary screen of LOPAC/NPACT libraries.

Like-named read-outs stand apart in the source and are kept apart here.

As a reminder, the IC50 is the concentration that inhibits the measured activity by half. Consider `O=C(O)C(F)(F)F.O=C1c2ccccc2NC(c2ccc(-c3cccc([N+](=O)[O-])c3)o2)N1O` (centres unmarked) [NCGC00183384-01], for which, under setting [1], the “Efficacy (%)” value is reported as -23% and the IC50 stood at 56.2 µM. For the same compound, under setting [2], the “Curve Class” value was -2.4.
Take `O=C(N[C@@H](Cc1ccccc1)C(=O)CCl)OCc1ccccc1` [NCGC00093742-04]: under setting [3], the “Efficacy (%)” value is recorded as -19%, the “Curve Class” value is listed as -1.2 and the IC50 was determined as 10 µM.
With `Cc1ccc(C)n1-c1cnccc1C(=O)O.O=C(O)C(F)(F)F` [NCGC00273496-01], under setting [1], the “Efficacy (%)” value is recorded as -39%, the “Curve Class” value was -2.4 and the IC50 is 44.7 µM.
Regarding `Cc1nnc(SCC2=C(C(=O)O)N3C(=O)[C@@H](NC(=O)Cn4cnnn4)[C@H]3SC2)s1` [NCGC00022653-06], the “Efficacy (%)” value under setting [3] is -21%.
In the case of `O=C(CN1C(=O)N/C(=C\c2cn(-c3cccc(C(=O)O)c3)cn2)C1=O)Nc1ccc(Cl)cc1` [NCGC00182401-01], under setting [1], the “Efficacy (%)” value was -30% and the IC50 worked out at 44.7 µM. The “Curve Class” value under setting [2] is listed as -2.4.
As for `CC(C)=CCOc1ccc(/C=C/C(=O)c2ccc(OCC=C(C)C)cc2OCC(=O)O)cc1` [NCGC00159481-03], under setting [1], the “Efficacy (%)” value is -94%, the “Curve Class” value was -3 and the IC50 is 100 µM.
Take `Cc1cc(N2CCN(c3ccccc3)CC2)nc(-n2nc(C)cc2C)n1.O=C(O)C(F)(F)F` [NCGC00067399-02]: under setting [1], the “Efficacy (%)” value was -30%, the “Curve Class” value is -2.4 and the IC50 turned out to be 56.2 µM.
Take `O=[N+]([O-])c1cccc2c(Br)n[nH]c12` [NCGC00015143-10]: under setting [3], the “Efficacy (%)” value is -16%, the “Curve Class” value is on record as -2.4 and the IC50 turned out to be 79.4 µM.
As to `O=C(Nc1nc(-c2ccccc2)cs1)c1ccncc1NS(=O)(=O)c1ccccc1Cl.O=C(O)C(F)(F)F` [NCGC00344943-02], under setting [1], the “Efficacy (%)” value was -50% and the IC50 worked out at 64.8 µM.
Take `C=CC(=O)Nc1ccc(CN2C(=O)N(c3cc(OC)cc(OC)c3)Cc3cnc(Nc4ccc(N5CCN(C)CC5)cc4)nc32)cc1` [NCGC00484066-01]: under setting [3], the “Efficacy (%)” value is -26%, the “Curve Class” value is given as -2.4 and the IC50 was 56.2 µM.
Take `CNc1nc2c(s1)C(c1ccc(OC)cc1OC)CC(=O)N2.O=C(O)C(F)(F)F` (centres unmarked) [NCGC00488262-02]: under setting [1], the “Efficacy (%)” value is recorded as -39%, the “Curve Class” value is -2.4 and the IC50 amounted to 56.2 µM.
As to `CC(NC(=O)CC(=O)O)c1nc2ccccc2c(=O)[nH]1` (centres unmarked) [NCGC00385407-01], under setting [3], the “Efficacy (%)” value is -145%, the “Curve Class” value was -2.1 and the IC50 came to 28.2 µM.
For `COc1cc(NS(C)(=O)=O)ccc1Nc1c2ccccc2nc2ccccc12.Cl` [NCGC00015113-03], in that order: -25%, -2.2 and 56.2 µM.
Turning to `Cc1cnc(-c2ccccc2C(C)C)nc1NC(C)c1ccc(-c2cccnc2)cc1.O=C(O)C(F)(F)F` (centres unmarked) [NCGC00253889-01], under setting [1], the “Efficacy (%)” value is reported as -56%, the “Curve Class” value was -2.4 and the IC50 was 56.2 µM.
Take `Cl.Cl.NC(CO)C(=O)NNCc1ccc(O)c(O)c1O` (centres unmarked) [NCGC00015163-09]: under setting [1], the “Efficacy (%)” value is listed as -50% and the IC50 came out at 50.1 µM. In addition, the “Curve Class” value under setting [2] is -2.2.
`Cc1cc(SCc2sc(-c3ccc(Cl)cc3)nc2C)ccc1OCC(=O)O.O=C(O)C(F)(F)F` [NCGC00319056-01]: under setting [1], the “Efficacy (%)” value is -32%, the “Curve Class” value is listed as -2.4 and the IC50 is 56.2 µM.
Take `C=C1C(=O)O[C@H]2C3=C(C)CCC[C@]3(C)C(=O)C[C@@H]12` [NCGC00168931-02]: under setting [3], the “Efficacy (%)” value is -27%, the “Curve Class” value is on record as -2.4 and the IC50 came to 56.2 µM.
Take `CC(=O)NCc1ccc(-c2csc(Nc3cccc(C)c3)n2)o1.O=C(O)C(F)(F)F` [NCGC00304445-03]: under setting [1], the “Efficacy (%)” value was -38% and the half-maximal inhibitory concentration (IC50) turned out to be 44.7 µM. Further, the “Curve Class” value under setting [2] was -2.4.
As to `Cc1cc(OCCCS(C)(=O)=O)cc(C)c1-c1cccc(COc2ccc(-c3cc(=O)[nH][s+]3[O-])cc2)c1` (centres unmarked) [NCGC00485952-01], under setting [3], the “Efficacy (%)” value is on record as -27%, the “Curve Class” value is recorded as -1.4 and the IC50 amounted to 4 µM.
With `CO/N=C(\C(=O)N[C@@H]1C(=O)N2C(C(=O)O)=C(CSc3nc(=O)c(O)nn3C)CSC12)c1csc(N)n1` (some centres unmarked) [NCGC00162111-02], under setting [3], the “Efficacy (%)” value is listed as -18%, the “Curve Class” value was -1.2 and the half-inhibitory concentration (IC50) turned out to be 20 µM.
As to `O=C1Nc2ccc3ncsc3c2/C1=C/c1c[nH]cn1` [NCGC00387501-01], the “Curve Class” value (qHTS primary screen hits, Table S2, NPACT library) is listed as -1.4. Also, under setting [1], the “Efficacy (%)” value is recorded as -27% and the IC50 is 7.1 µM.
Regarding `CN(C)c1ccc(-c2ccnc(O)c2N)cc1` [NCGC00181386-01], under setting [1], the “Efficacy (%)” value is -24% and the IC50 was found to be 79.4 µM. In addition, under setting [2], the “Curve Class” value is reported as -2.4.
With `O=C(O)C(F)(F)F.OC(CN1CCCCC1)Cn1c2ccc(Cl)cc2c2cc(Cl)ccc21` (centres unmarked) [NCGC00356030-01], under setting [1], the “Efficacy (%)” value is -35%, the “Curve Class” value is listed as -3 and the half-inhibitory concentration (IC50) was determined as 79.4 µM.
For `Cc1ccc(S(=O)(=O)Nc2cnccc2C(=O)Nc2cccc3ccccc23)cc1.O=C(O)C(F)(F)F` [NCGC00343900-01], in that order: -32%, -2.4 and 50.1 µM.
The corresponding values for `CN(C)CCc1c[nH]c2ccc(O)cc12` [NCGC00247724-01] are -23%, -2.4 and 112 µM.
In the case of `COc1cc(NS(=O)(=O)c2ccc([N+](=O)[O-])cc2)c2ncccc2c1` [NCGC00161705-01], under setting [1], the “Efficacy (%)” value was -40% and the concentration for half-maximal inhibition (IC50) was found to be 56.2 µM. The “Curve Class” value under setting [2] is -2.4.
The corresponding values for `Cc1ccnc(NC(=S)N2CC[C@@H](Nc3cccc(C(F)(F)F)c3)C2)c1` [NCGC00241356-01] are -31%, 79.4 µM and -2.4.
On to `N#C/C(=C\c1ccc(O)c(O)c1)C(=O)NCCc1ccccc1` [NCGC00016029-05], for which, under setting [3], the “Efficacy (%)” value is -15%, the “Curve Class” value is given as -1.2 and the 50% inhibitory concentration (IC50) was 7.9 µM.
Turning to `C=CCNc1oc(-c2ccc(F)cc2)nc1C#N.O=C(O)C(F)(F)F` [NCGC00183411-01], under setting [1], the “Efficacy (%)” value is given as -27% and the half-inhibitory concentration (IC50) was determined as 50.1 µM. For the same compound, the “Curve Class” value under setting [2] was -2.4.
On to `COc1cc(/C=C(\C#N)C(=O)Nc2nnc(C(F)(F)F)s2)ccc1OCc1ccc(C(F)(F)F)cc1C(F)(F)F` [NCGC00165952-02], for which, under setting [3], the “Efficacy (%)” value is on record as -19%, the “Curve Class” value is on record as -1.4 and the IC50 was determined as 5.6 µM.
The corresponding values for `O=C1OCc2cc3cccc(O[C@@H]4O[C@H](CO)[C@@H](O)[C@H](O)[C@H]4O)c3c(O)c21` [NCGC00169010-02] are -30%, -2.4 and 22.4 µM.
`CCCc1ccc(-c2csc(NC(=O)c3ccncc3NS(=O)(=O)c3ccc(C)cc3)n2)cc1.O=C(O)C(F)(F)F` [NCGC00318955-01]: under setting [1], the “Efficacy (%)” value is listed as -35% and the IC50 was 50.1 µM. Further, under setting [2], the “Curve Class” value was -2.4.
`Cc1nc2sccn2c(=O)c1CCN1CCC(=C(c2ccc(F)cc2)c2ccc(F)cc2)CC1` [NCGC00015877-09]: under setting [3], the “Efficacy (%)” value is recorded as -22%, the “Curve Class” value is given as -2.2 and the IC50 worked out at 56.2 µM.
For `COc1ccccc1-c1cccc(-c2c(O)c3cc(C#N)c(Cl)cc3[nH]c2=O)c1` [NCGC00263230-01], under setting [1], the “Efficacy (%)” value is -24% and the IC50 worked out at 62.2 µM. Under setting [2], the “Curve Class” value is recorded as -2.4.
Take `CCCN1C[C@H](CSC)C[C@@H]2c3cccc4[nH]cc(c34)C[C@H]21` [NCGC00017366-05]: under setting [3], the “Efficacy (%)” value is -29%, the “Curve Class” value is -2.2 and the IC50 amounted to 50.1 µM.
Take `C#CCCC(=O)Nc1sc2c(c1-c1nc3ccccc3s1)CCN(C(C)C)C2.O=C(O)C(F)(F)F` [NCGC00185086-01]: under setting [1], the “Efficacy (%)” value is on record as -24%, the “Curve Class” value is recorded as -1.4 and the IC50 was determined as 3.5 µM.
For `CCN(CC)C(=O)[C@@H]1C=C2c3cccc4[nH]cc(c34)C[C@H]2N(C)C1` [NCGC00168265-02], under setting [1], the “Efficacy (%)” value is reported as -141%, the “Curve Class” value was -1.1 and the IC50 is 63.1 µM.
In the case of `COc1cccc(CNC(=O)C2=NC3SC=C(COCc4ccc(C(=O)O)cc4)C3C(=O)N2)c1` (centres unmarked) [NCGC00488702-01], under setting [3], the “Efficacy (%)” value is -27%, the “Curve Class” value is -1.4 and the IC50 turned out to be 5.6 µM.
With `COc1cc(Nc2ccc([N+](=O)[O-])cc2C(=O)O)cc2ccccc12` [NCGC00402240-03], under setting [3], the “Efficacy (%)” value is listed as -27%, the “Curve Class” value was -2.4 and the IC50 was found to be 50.1 µM.
For `Nc1nc(N)c2nc(CNc3ccc(C(=O)NC(CCC(=O)O)C(=O)O)cc3)cnc2n1` (centres unmarked) [NCGC00015038-09], under setting [1], the “Efficacy (%)” value is given as -49%, the “Curve Class” value is recorded as -2.2 and the IC50 came to 39.8 µM.
Regarding `COc1ccc2[nH]c([S+]([O-])Cc3ncc(C)c(OC)c3C)nc2n1` (centres unmarked) [NCGC00167521-02], under “qHTS FP screen hits, Table S2”, the “Efficacy (%)” value was -34% and the IC50 was 47.4 µM.
